Reference: US6355619B1, “Peptide tumor cell growth inhibitors” (Board of Regents, The University of Texas System, priority 1996, dated 2002)
Where two headings read alike, the source gives them in different places.

Experiments:
[1] = tested on: IL-8 receptors on neutrophils; assay: Inhibition of 125I-labeled IL-8 binding to human neutrophils; settings: for Receptor 1 Bmax of IL-8, two-site model / Receptor 2 Bmax of IL-8, two-site model: binding isotherms, Lundon I
Procedure: Therefore, in pursuing this aim, the present inventors assayed various other peptide compositions for IL-8 inhibitory activity by screening a library of 400 groups of hexapeptides. In these screening assays, ^125I-labeled interleukin-8 (10^−12 M) was mixed with 100 μM peptide, then added to neutrophils and incubated at 4° C. for 90 min. The bound radioactivity was separated from unbound by centrifugation through a dense cushion of a mixture of paraffin and silicon oils and the ^125I bound to neutrophils was counted in a gamma radiation spectrometer, allowing the results to be expressed as the percent of IL-8 binding which was inhibited.
The use of human subjects for acquisition of neutrophils was approved by the Institutional Review Board for human experimentation. For the preparation of neutrophils, human blood was anticoagulated with heparin for enzyme release studies and with 0.33% sodium citrate for other studies. For chemotactic and enzyme release studies neutrophils were separated by dextran sedimentation and erythrocyte lysis by the method of Boyum (Kohler and Milstein, 1975). For binding studies and cytotoxic studies, the neutrophils were further purified in gradients of Percoll (Pharmacia Fine Chemicals, Piscataway, N.J.) to a purity of 90-93% (Kohler and Milstein, 1975).
Recombinant human IL-8 (72 amino acids; Pepro Tech Inc., Rocky Hill, N.J.) was radioactively labeled with ^125I by the chloramine T method of Hunter and Greenwood (Hunter and Greenwood, 1962). Binding studies were performed according to Besemer et al. (1989), as follows: Neutrophils in phosphate buffered saline pH 7.4 (PBS) containing 0.1% bovine serum albumin (BSA) were incubated with labeled ligand in the presence or absence of the peptide being tested for 90 min at 4° C. to reach equilibrium and then centrifuged at 12,000×g for 3 min in Beckman B microfuge (Beckman Instruments, Fullerton, Calif.), through a cushion consisting of a mixture of paraffin oil Fisher Scientific, Fair Lawn, N.J.) and silicon oil (Serva Co., N.Y., N.Y.). The pellet and supernatant were then counted in a gamma radiation spectrometer. The non-specific binding was estimated to measure the binding in the presence of 100-fold excess of non-labeled ligand. The binding constants were calculated using the computer programs Lundon I and Lundon II.
In these studies, a screening for inhibition was carried out at 100 μM concentration of the peptide being tested, with a 10^−12 M concentration of IL-8. In the first series of studies, twenty peptides were synthesized with the carboxyl-terminal residue of RRWWCX (SEQ ID NO:23) being changed to each of the standard protein amino acids in turn.

[2] = tested on: MGSA/GROα receptors on Hs 294T melanoma cells; assay: Binding of 125I-MGSA/GROα to Hs 294T melanoma cells; set-up: species or system human; settings: 1 nM 125I-labeled MGSA/GROα, read-out: EC50, inhibition of MGSA/GROα binding
Procedure: FIG. 11A. The binding of ^125I-labeled MGSA/GROα to melanoma cell lines, Hs 294T and RPMI-7951. The melanoma cells, 1×10^5, were incubated with 1 nM ^125I-MGSA/GROα in the presence of various concentrations of unlabeled MGSA/GROα. Binding inhibition curve with Hs 294T (closed circles) and RPMI-7951 (open circles). The lines shown in the graph are the best fit curves calculated using the London II computer program.
FIG. 13. The effect of Antileukinate on the binding of radiolabeled MGSA/GROα to the melanoma cell lines. The melanoma cells, Hs 294T (closed circles) and RPMI-7951 (open circles), were incubated with 1 nM ^125I-MGSA/GROα in the presence of different concentrations of Antileukinate. The lines shown in the graph are the best fit curves calculated using the London II computer program.
Recombinant human MGSA/GROα and IL-8 were purchased form Pepro Tech Inc. (Rocky Hill, N.J.) and radioactively labeled using ^125I-labeled Bolton-Hunter reagent (DuPont-NEN, Wilmington, Del.) (Bolton and Hunter, 1973). The labeled proteins were isolated using Sephadex G-25 column (Column PD-10, Pharmacia) pre-equilibrated with PBS containing 0.1% gelatin and stored at −70° C. after the addition of 1% bovine serum albumin.
Binding studies with melanoma cell lines were performed by the method of Horuk and colleagues (Horuk et al., 1993). Briefly, the cells (1×10^5 cells/well) in 24-well plates were washed two times with Hank's Balanced Salt Solution and incubated with ^125I-labeled MGSA/GROα or IL-8 in the buffer containing 1% bovine serum albumin at 4° C. for 3 hr. The incubation was terminated by vacuum aspiration of the supernatant. The cells were washed three times in binding buffer, solubilized by the addition of 200 μl of 1% SDS, and transferred to vials for counting. The non-specific binding was estimated by measuring the binding in the presence of 100-fold excess of non-labeled ligand. The binding parameters were calculated using the Lundon II computer program (Lundon Software Inc., Chagrin Falls, Ohio).

[3] = tested on: lung adenocarcinoma cell line KS-LU-1; assay: Tumor cell growth, KS-LU-1; format: cell-based
[4] = tested on: adenocarcinoma from stomach Hs746T; assay: Tumor cell growth, Hs746T; format: cell-based
[5] = +10 μM Ac-RRWWCR, binding inhibition curves, Lundon II

RRWWCR [Ac-RRWWCR-NH2]
concentration at which IL-8 binding was suppressed significantly ([1]; 1 nM 125I-labeled IL-8 (FIG. 5)): 100 nM | EC50 ([1]; 1 nM 125I-labeled IL-8, 90 min at 4° C., multiple replicates, read-out: average EC50 of the binding inhibition curve): 13.7 ± 0.6 µM | EC50 ([1]; 1 nM IL-8, FIG. 10, peptide premixed with ligand 15 min, read-out: EC50, inhibition of binding of IL-8 to neutrophils): ~25 µM | inhibition of IL-8 binding to neutrophils ([1]; 10 μM peptide (FIG. 9)): 20% | Receptor 1 Bmax of IL-8, two-site model ([1]; 10 μM peptide): 91.9 ± 9.2 fmole/10^6 cells | Receptor 2 Bmax of IL-8, two-site model ([1]; 10 μM peptide): 90.9 ± 9.7 fmole/10^6 cells | IL-8 binding inhibition at lower peptide concentration (FIG. 1) ([1]; 20 μM peptide): most potent inhibitor | Receptor 1 Bmax of IL-8, two-site model ([1]; 20 μM peptide): 90.9 ± 27.3 fmole/10^6 cells | Receptor 2 Bmax of IL-8, two-site model ([1]; 20 μM peptide): 76.2 ± 11.8 fmole/10^6 cells | Receptor 1 Bmax of IL-8, two-site model ([1]; 40 μM peptide): 82.0 ± 25.4 fmole/10^6 cells | Receptor 2 Bmax of IL-8, two-site model ([1]; 40 μM peptide): 44.2 ± 30.0 fmole/10^6 cells | % INHIB. (IL-8 binding to neutrophils) ([1]; 100 μM peptide, 10^−12 M IL-8, hexamer RRWWCX series, first screen): 112.2% | Receptor 1 Bmax of IL-8 [1, 5]: 11.2 ± 0.8 fmole/10^6 cells | Receptor 2 Bmax of IL-8 [1, 5]: 75.6 ± 0.7 fmole/10^6 cells | % INHIB. (IL-8 binding to neutrophils) ([1]; first set of heptamer studies, D-amino acid RRWWCRX series, methodology of Example I): 112.2% | effectiveness relative to the non-acetylated peptide ([1]; inhibiting IL-8 binding to neutrophils): almost twice as effective | IC50 ([1]; read-out: IC50, binding of radiolabeled IL-8): 13.7 µM | Ki ([1]; specific binding of 125I-labeled IL-8, read-out: apparent K1 (estimated, purely competitive single site model)): ~10 µM | % Binding Inhibition (IL-8 binding to neutrophils) ([1]; synthetic peptides, standard assay (Table 6)): 98.6 ± 0.9% | EC50 [2]: ~1 µM | effect on cell growth [3]: inhibits growth | effect on cell growth [4]: inhibits growth | cell lysis under conditions used in chemotaxis (neutrophils; 100 μM peptide, RPMI-1640 1% BSA, 30 min at 37° C.): had no effect | cells damaged under conditions used in chemotaxis (neutrophils; 500 μM peptide, RPMI-1640 1% BSA, 30 min at 37° C.): ~25% | percentage of cells lysed (neutrophils; PBS containing 0.1% BSA, 90 min at 4° C., up to 500 μM peptide): remained near control level
